The values below come from ChEMBL document CHEMBL1150293, “The pyridoxamine action on Amadori compounds: A reexamination of its scavenging capacity and chelating effect” (Bioorg Med Chem, 2008).

SMILES strings stand for the structures.

The nature of this data set: Aqueous stability assessed as half life at pH 7.4 by HPLC. It counts as physicochemical. The note with it: aqueous solution.

As for `O=C(CN1CCOCC1)[C@@H](O)[C@H](O)[C@H](O)CO`, the half-life was 92 h.
Take `O=C(CN[C@H](Cc1c[nH]c2ccccc12)C(=O)O)[C@@H](O)[C@H](O)[C@H](O)CO`: the half-life is 25 h.
